Source: patent publication US11566007B2, “Ras inhibitors” (Revolution Medicines, Inc., priority 2019, dated 2023)

Columns and labels:
NRAS WT = NRAS WT (Homo sapiens (Human), UniProt P01111+P62937); assay: Ras-Raf (BRAF RBD) disruption / FRET / MOA assay, NRAS WT; assay type: biochemical; conditions: read-out: IC50* NRAS WT FRET data
In short: (§1)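 TR-FRET disruption of nucleotide-loaded Ras binding to BRAF RBD via compound-driven ternary complex with cyclophilin A. Compound as 10-point 3-fold series from 30 μM final, 3 h at 25° C, then anti-His Eu-W1024 (10 nM) and anti-GST allophycocyanin (50 nM) for 1.5 h. IC50 from decreased FRET ratio versus DMSO.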

[1] = system: NCI-H358 cells (K-Ras G12C); assay: Potency assay: pERK in NCI-H358 cells; assay type: cell-based, human; conditions: Homo sapiens, NCI-H358; H358 KRAS G12C; read-out: pERK EC50
In short: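 4 h cpd, 37 °C; 10-pt 3-fold series, 10 mM DMSO top stock, duplicates. Readout pERK: AlphaLISA SureFire Ultra or In-Cell Western (IR-800CW secondary, DRAQ5 DNA stain). IC50, 4-PL fit vs log conc.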

KRAS G13D = KRAS G13D (Homo sapiens (Human), UniProt P01116+P62937, G13D); assay: Ras-Raf (BRAF RBD) disruption / FRET / MOA assay, KRAS G13D; assay type: biochemical; conditions: read-out: IC50* KRAS G13D FRET data
In short: (§2)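 Ras:RAF disruption was scored as a fall in TR-FRET ratio relative to DMSO. Compound ranged in 3-fold steps over 10 points from 30 μM final; incubation ran 3 h at 25° C, detection antibodies a further 1.5 h. Reported as IC50.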

KRAS Q61H = KRAS Q61H (Homo sapiens (Human), UniProt P01116+P62937, Q61H); assay: Ras-Raf (BRAF RBD) disruption / FRET / MOA assay, KRAS Q61H; assay type: biochemical; conditions: Ras-Raf disruption/FRET/MOA assay; class symbols; read-out: KRAS Q61H FRET data IC50
In short: as §1

NRAS G12C = NRAS G12C (Homo sapiens (Human), UniProt P01111+P62937, G12C); assay: Ras-Raf (BRAF RBD) disruption / FRET / MOA assay, NRAS G12C; assay type: biochemical; conditions: read-out: IC50* NRAS G12C FRET data
In short: as §2

K-Ras G13C = K-Ras G13C (Homo sapiens (Human), UniProt P01116+P62937, G13C); assay: Ras-Raf (BRAF RBD) disruption / FRET / MOA assay, KRAS G13C; assay type: biochemical; conditions: KRAS G13C; Ras-Raf disruption/FRET/MOA assay; read-out: IC50* KRAS G13C FRET data
In short: as §2

KRAS G12V = KRAS G12V (Homo sapiens (Human), UniProt P01116+P62937, G12V); assay: Ras-Raf (BRAF RBD) disruption / FRET / MOA assay, KRAS G12V; assay type: biochemical; conditions: read-out: IC50* KRAS G12V FRET data
In short: as §2

Sequence of KRAS G13D (P01116-2 other isoform, or with tags, fused parts or gaps G13D): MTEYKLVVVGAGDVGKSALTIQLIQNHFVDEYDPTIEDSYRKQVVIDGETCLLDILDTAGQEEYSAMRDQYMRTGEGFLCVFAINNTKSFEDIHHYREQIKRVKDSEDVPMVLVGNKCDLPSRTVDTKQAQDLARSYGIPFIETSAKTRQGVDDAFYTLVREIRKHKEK
Sequence of KRAS G13D (P62937 whole entry): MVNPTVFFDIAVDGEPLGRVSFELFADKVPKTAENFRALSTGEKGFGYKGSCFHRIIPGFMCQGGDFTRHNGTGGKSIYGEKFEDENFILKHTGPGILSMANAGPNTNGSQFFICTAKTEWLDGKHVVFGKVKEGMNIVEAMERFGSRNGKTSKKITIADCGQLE
Sequence of NRAS WT (P01111 whole entry): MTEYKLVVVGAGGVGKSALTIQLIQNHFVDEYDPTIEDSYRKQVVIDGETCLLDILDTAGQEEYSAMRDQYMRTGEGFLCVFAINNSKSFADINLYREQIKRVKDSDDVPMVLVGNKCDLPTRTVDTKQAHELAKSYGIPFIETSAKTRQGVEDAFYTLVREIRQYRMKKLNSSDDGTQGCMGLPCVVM
Sequence of NRAS WT (P62937 whole entry): as the sequence (P62937 whole entry) above
Sequence of K-Ras G13C (P01116-2 other isoform, or with tags, fused parts or gaps G13C): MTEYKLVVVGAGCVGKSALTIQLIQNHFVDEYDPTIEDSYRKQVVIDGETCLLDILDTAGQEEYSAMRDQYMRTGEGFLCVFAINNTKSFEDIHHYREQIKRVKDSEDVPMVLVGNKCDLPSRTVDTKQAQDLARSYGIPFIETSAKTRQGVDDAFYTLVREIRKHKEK
Sequence of K-Ras G13C (P62937 whole entry): as the sequence (P62937 whole entry) above
Sequence of KRAS G12V (P01116-2 other isoform, or with tags, fused parts or gaps G12V): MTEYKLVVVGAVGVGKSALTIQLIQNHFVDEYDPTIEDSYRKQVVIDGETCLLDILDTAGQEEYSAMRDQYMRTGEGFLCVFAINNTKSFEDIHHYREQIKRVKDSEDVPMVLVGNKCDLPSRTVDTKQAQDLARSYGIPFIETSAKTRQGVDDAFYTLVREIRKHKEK
Sequence of KRAS G12V (P62937 whole entry): as the sequence (P62937 whole entry) above
Sequence of KRAS Q61H (P01116-2 other isoform, or with tags, fused parts or gaps Q61H): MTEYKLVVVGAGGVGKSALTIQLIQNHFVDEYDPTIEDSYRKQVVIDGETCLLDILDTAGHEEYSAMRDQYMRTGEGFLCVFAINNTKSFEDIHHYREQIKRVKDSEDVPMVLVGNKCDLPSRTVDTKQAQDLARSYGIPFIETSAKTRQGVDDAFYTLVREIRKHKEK
Sequence of KRAS Q61H (P62937 whole entry): as the sequence (P62937 whole entry) above
Sequence of NRAS G12C (P01111 whole entry G12C): as the sequence (P01111 whole entry) above, with G12C counted along it
Sequence of NRAS G12C (P62937 whole entry): as the sequence (P62937 whole entry) above

SMILES: C=CC(=O)N1CCOC2(C1)CN(C(=O)N(C)[C@H](C(=O)N[C@H]1Cc3cccc(c3)-c3ccc4c(c3)c(c(-c3cccnc3[C@H](C)OC)n4CC(F)(F)F)CC(C)(C)COC(=O)[C@@H]3CCCN(N3)C1=O)C(C)C)C2 (atropisomer, axis not shown) [Example A538]
- IC50 (NRAS WT): 100 to 1000 nM
- EC50 [1]: < 5 µM
- IC50 (KRAS G13D): 100 to 1000 nM
- IC50 (KRAS Q61H): 100 to 1000 nM
- IC50 (NRAS G12C): 10 to 100 nM
- IC50 (K-Ras G13C): 10 to 100 nM
- IC50 (KRAS G12V): 100 to 1000 nM

SMILES: CO[C@@H](C)c1ncccc1-c1c2c3cc(ccc3n1CC(F)(F)F)-c1cccc(c1)C[C@H](NC(=O)[C@H](C(C)C)N(C)C(=O)N1CCC3(CC1)CN(C(=O)/C=C/CN(C)C)C3)C(=O)N1CCC[C@H](N1)C(=O)OCC(C)(C)C2 (atropisomer, axis not shown) [Example A555]
- IC50 (NRAS WT): 100 to 1000 nM
- EC50 [1]: < 5 µM
- IC50 (KRAS G13D): 100 to 1000 nM
- IC50 (KRAS Q61H): 100 to 1000 nM
- IC50 (NRAS G12C): 100 to 1000 nM
- IC50 (K-Ras G13C): 10 to 100 nM
- IC50 (KRAS G12V): 100 to 1000 nM

SMILES: CCn1c(-c2cccnc2[C@H](C)OC)c2c3cc(ccc31)-c1cccc(c1)C[C@H](NC(=O)[C@H](C(C)C)N1CC[C@@]3(CCN(C(=O)C#C[C@H]4COCCN4C4COC4)C3)C1=O)C(=O)N1CCC[C@H](N1)C(=O)OCC(C)(C)C2 (atropisomer, axis not shown) [Example A567]
- IC50 (NRAS WT): 1000 to 10000 nM
- EC50 [1]: < 5 µM
- IC50 (KRAS G13D): 1000 to 10000 nM
- IC50 (KRAS Q61H): 100 to 1000 nM
- IC50 (NRAS G12C): 10 to 100 nM
- IC50 (K-Ras G13C): 100 to 1000 nM
- IC50 (KRAS G12V): 1000 to 10000 nM

SMILES: C=CC(=O)N1CCO[C@H]2CN(C(=O)N(C)[C@H](C(=O)N[C@H]3Cc4coc(n4)-c4ccc5c(c4)c(c(-c4cccnc4[C@H](C)OC)n5CC(F)(F)F)CC(C)(C)COC(=O)[C@@H]4CCCN(N4)C3=O)C(C)C)C[C@H]21 (atropisomer, axis not shown) [Example A574]
- IC50 (NRAS WT): 1000 to 10000 nM
- EC50 [1]: < 5 µM
- IC50 (KRAS G13D): 1000 to 10000 nM
- IC50 (KRAS Q61H): 100 to 1000 nM
- IC50 (NRAS G12C): 10 to 100 nM
- IC50 (K-Ras G13C): 10 to 100 nM
- IC50 (KRAS G12V): 1000 to 10000 nM

SMILES: C=CC(=O)N1C[C@@H](N(C)C(=O)N(C)[C@H](C(=O)N[C@H]2Cc3nc(cs3)-c3ccc4c(c3)c(c(-c3cccnc3[C@H](C)OC)n4CC)CC(C)(C)COC(=O)[C@@H]3CCCN(N3)C2=O)C(C)C)[C@@H](C)C1 (atropisomer, axis not shown) [Example A583]
- IC50 (NRAS WT): 100 to 1000 nM
- EC50 [1]: < 5 µM
- IC50 (KRAS G13D): 1000 to 10000 nM
- IC50 (KRAS Q61H): 100 to 1000 nM
- IC50 (NRAS G12C): 100 to 1000 nM
- IC50 (K-Ras G13C): 100 to 1000 nM
- IC50 (KRAS G12V): 1000 to 10000 nM

SMILES: C=CC(=O)N1C[C@H](C)N(C(=O)N(C)[C@H](C(=O)N[C@H]2Cc3nc(cs3)-c3ccc4c(c3)c(c(-c3cccnc3[C@H](C)OC)n4CC)CC(C)(C)COC(=O)[C@@H]3CCCN(N3)C2=O)C(C)C)CC12CC2 (atropisomer, axis not shown) [Example A586]
- IC50 (NRAS WT): 100 to 1000 nM
- EC50 [1]: < 5 µM
- IC50 (KRAS G13D): 1000 to 10000 nM
- IC50 (KRAS Q61H): 10 to 100 nM
- IC50 (NRAS G12C): 100 to 1000 nM
- IC50 (K-Ras G13C): 100 to 1000 nM
- IC50 (KRAS G12V): 100 to 1000 nM

SMILES: C=CC(=O)N1C[C@@H](C)[C@H](N(C)C(=O)N(C)[C@H](C(=O)N[C@H]2Cc3nc(cs3)-c3ccc4c(c3)c(c(-c3cccnc3[C@H](C)OC)n4CC)CC(C)(C)COC(=O)[C@@H]3CCCN(N3)C2=O)C(C)C)C1 (atropisomer, axis not shown) [Example A588]
- IC50 (NRAS WT): 1000 to 10000 nM
- EC50 [1]: < 5 µM
- IC50 (KRAS G13D): 1000 to 10000 nM
- IC50 (KRAS Q61H): 100 to 1000 nM
- IC50 (NRAS G12C): 100 to 1000 nM
- IC50 (K-Ras G13C): 1000 to 10000 nM
- IC50 (KRAS G12V): 1000 to 10000 nM

SMILES: C=CC(=O)Nc1cnc(OC[C@H](C(=O)N[C@H]2Cc3cccc(c3)-c3ccc4c(c3)c(c(-c3cccnc3[C@H](C)OC)n4CC)CC(C)(C)COC(=O)[C@@H]3CCCN(N3)C2=O)C(C)C)n1C (atropisomer, axis not shown) [Example A600]
- IC50 (NRAS WT): 100 to 1000 nM
- EC50 [1]: < 5 µM
- IC50 (KRAS G13D): 1000 to 10000 nM
- IC50 (KRAS Q61H): 100 to 1000 nM
- IC50 (NRAS G12C): < 10 nM
- IC50 (K-Ras G13C): 10 to 100 nM
- IC50 (KRAS G12V): 1000 to 10000 nM

SMILES: C=CC(=O)N1CCOC2(C1)CN(C(=O)N(C)[C@H](C(=O)N[C@H]1Cc3nc(cs3)-c3ccc4c(c3)c(c(-c3cccnc3[C@H](C)OC)n4CC(F)(F)F)CC(C)(C)COC(=O)[C@@H]3CCCN(N3)C1=O)C(C)C)C2 (atropisomer, axis not shown) [Example A604]
- IC50 (NRAS WT): 100 to 1000 nM
- EC50 [1]: < 5 µM
- IC50 (KRAS G13D): 1000 to 10000 nM
- IC50 (KRAS Q61H): 100 to 1000 nM
- IC50 (NRAS G12C): 100 to 1000 nM
- IC50 (K-Ras G13C): 10 to 100 nM
- IC50 (KRAS G12V): 100 to 1000 nM
